# pIC50, pKi: −log10 of the molar value. Non-standard residues stand in square brackets, D forms with d. Residues, ends and D or L forms follow the SMILES beside them. dArg(NO2) = N=C(NCCC[C@@H](N)C(=O)O)N[N+](=O)[O-]
# What was measured:
# Homo sapiens [1] = species on record: Homo sapiens; assay: Selectivity ratio of IC50 for recombinant GluN2A/GluN2D receptor (unknown origin) to IC50 for GluN2C/GluN2D (unknown origin) receptor
# Canis familiaris = assay: Antialzheimer activity in Beagle dog assessed as reduction in CSF amyloid beta level at 5 mg/kg, po after 9 hrs relative to control; assay type: functional, Canis lupus familiaris; parameters: scale not given: the % may be the effect or the level left
# [2] = Neuroprotective activity in rat Cortical neuron assessed as protection from glutamate-induced neurotoxicity treated after glutamate-challenge by lactate dehydrogenase assay; assay type: functional; conditions: cortical neurone
# [3] = Selectivity ratio of Ki for bovine eNOS to Ki for rat nNOS
# Nitric oxide synthase 1 [4] = target: Nitric oxide synthase 1 (Rattus norvegicus, UniProt P29476)
# Sequence of Nitric oxide synthase 1 (Rattus norvegicus, UniProt P29476) (P29476 whole entry): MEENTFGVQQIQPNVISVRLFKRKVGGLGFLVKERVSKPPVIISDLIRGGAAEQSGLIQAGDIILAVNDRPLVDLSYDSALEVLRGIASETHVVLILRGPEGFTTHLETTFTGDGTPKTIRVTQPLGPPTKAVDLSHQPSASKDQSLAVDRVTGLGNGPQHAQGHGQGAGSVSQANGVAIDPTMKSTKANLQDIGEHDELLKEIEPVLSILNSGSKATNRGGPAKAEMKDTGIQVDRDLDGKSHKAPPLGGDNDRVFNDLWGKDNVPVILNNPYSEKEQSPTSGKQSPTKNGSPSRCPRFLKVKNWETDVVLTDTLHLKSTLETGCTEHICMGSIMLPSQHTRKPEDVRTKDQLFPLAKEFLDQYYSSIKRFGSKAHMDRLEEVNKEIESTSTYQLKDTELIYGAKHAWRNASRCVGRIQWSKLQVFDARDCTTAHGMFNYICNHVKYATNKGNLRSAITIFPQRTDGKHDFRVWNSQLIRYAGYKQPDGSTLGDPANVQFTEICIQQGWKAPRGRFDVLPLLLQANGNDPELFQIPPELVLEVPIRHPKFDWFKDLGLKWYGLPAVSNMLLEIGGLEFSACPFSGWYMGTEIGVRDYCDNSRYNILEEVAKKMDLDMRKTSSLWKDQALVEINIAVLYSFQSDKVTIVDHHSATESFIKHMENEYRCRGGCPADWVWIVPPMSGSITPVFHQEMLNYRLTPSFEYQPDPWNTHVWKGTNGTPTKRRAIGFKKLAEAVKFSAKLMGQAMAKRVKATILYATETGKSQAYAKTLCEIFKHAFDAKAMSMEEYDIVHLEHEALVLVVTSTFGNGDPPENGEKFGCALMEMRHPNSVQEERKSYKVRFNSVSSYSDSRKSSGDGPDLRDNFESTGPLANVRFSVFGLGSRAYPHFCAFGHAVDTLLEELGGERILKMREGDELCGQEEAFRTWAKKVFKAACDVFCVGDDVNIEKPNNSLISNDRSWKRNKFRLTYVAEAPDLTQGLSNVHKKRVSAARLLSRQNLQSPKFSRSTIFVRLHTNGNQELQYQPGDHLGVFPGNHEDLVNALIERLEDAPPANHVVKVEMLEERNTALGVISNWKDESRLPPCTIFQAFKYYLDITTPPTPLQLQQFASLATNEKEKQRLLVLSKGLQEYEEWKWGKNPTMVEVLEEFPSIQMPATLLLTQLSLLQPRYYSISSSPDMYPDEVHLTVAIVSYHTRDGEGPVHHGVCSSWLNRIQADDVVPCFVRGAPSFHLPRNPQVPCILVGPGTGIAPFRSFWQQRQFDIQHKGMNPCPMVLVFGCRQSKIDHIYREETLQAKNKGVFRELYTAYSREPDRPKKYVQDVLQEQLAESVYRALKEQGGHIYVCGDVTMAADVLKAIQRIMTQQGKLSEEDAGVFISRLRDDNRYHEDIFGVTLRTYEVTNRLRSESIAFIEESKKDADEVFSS
# [5] = Selectivity ratio of Ki for mouse iNOS to Ki for rat nNOS
# Nitric oxide synthase 1 [6] = target: Nitric oxide synthase 1 (Homo sapiens, UniProt P29475); assay: Inhibition of human nNOS
# Sequence of Nitric oxide synthase 1 (Homo sapiens, UniProt P29475) (P29475 whole entry): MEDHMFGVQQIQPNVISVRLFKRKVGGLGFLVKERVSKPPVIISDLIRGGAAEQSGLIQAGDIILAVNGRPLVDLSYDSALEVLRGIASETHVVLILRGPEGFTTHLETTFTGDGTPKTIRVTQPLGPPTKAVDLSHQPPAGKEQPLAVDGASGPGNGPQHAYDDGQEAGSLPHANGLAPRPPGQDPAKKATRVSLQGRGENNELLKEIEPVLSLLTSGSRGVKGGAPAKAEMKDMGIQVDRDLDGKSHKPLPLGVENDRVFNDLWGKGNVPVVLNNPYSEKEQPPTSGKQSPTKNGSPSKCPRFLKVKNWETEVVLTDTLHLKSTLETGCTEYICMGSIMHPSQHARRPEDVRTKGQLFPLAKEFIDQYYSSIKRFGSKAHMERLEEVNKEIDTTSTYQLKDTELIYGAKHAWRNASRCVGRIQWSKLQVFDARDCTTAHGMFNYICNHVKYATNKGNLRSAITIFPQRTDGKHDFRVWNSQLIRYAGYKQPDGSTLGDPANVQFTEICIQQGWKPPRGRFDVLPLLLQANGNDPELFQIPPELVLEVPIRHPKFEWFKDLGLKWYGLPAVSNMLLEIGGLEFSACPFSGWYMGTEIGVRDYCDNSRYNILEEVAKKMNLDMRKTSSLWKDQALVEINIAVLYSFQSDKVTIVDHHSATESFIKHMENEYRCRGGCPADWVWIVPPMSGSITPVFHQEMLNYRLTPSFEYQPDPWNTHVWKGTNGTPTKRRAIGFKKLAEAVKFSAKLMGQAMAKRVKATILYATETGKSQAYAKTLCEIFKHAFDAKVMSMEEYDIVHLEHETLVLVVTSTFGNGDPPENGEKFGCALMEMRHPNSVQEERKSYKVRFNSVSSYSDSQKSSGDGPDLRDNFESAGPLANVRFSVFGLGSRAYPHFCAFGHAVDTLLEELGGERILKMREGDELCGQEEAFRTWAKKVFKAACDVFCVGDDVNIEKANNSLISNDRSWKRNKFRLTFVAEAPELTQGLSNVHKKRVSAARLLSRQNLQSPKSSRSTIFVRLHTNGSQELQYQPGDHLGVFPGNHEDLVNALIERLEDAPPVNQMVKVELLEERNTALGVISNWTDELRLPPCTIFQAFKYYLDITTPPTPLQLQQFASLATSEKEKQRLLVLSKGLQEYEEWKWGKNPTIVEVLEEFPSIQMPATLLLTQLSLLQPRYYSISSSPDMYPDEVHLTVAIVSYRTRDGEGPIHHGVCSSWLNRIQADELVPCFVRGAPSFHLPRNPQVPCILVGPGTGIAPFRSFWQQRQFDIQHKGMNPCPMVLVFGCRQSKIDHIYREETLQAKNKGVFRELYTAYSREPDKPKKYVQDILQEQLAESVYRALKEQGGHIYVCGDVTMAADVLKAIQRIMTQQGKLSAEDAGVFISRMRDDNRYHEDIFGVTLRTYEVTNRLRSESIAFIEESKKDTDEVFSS
# Homo sapiens [7] = species on record: Homo sapiens; assay: Selectivity ratio of IC50 for human eNOS to IC50 for human nNOS
# Huntingtin = Huntingtin (Homo sapiens, UniProt P42858); assay: Inhibition of HD exon 1 fusion protein with 51 glutamine residues (unknown origin) aggregation expressed in Escherichia coli SURE after 16 hrs by Western blotting analysis
# [8] = Inhibition of NMDA receptor in mouse medium spiny neurons by whole cell patch clamp assay
# L-type calcium channel = L-type calcium channel (Mus musculus, UniProt Q01815+Q02789+Q99246+Q9JIS7); assay: Inhibition of Voltage-dependent L-type calcium channel in mouse medium spiny neurons by whole cell patch clamp assay
# Nitric oxide synthase 3 = target: T1, Nitric oxide synthase 3 (Homo sapiens, UniProt P29474); assay: Inhibition of human eNOS
# T1 sequence (P29474 whole entry): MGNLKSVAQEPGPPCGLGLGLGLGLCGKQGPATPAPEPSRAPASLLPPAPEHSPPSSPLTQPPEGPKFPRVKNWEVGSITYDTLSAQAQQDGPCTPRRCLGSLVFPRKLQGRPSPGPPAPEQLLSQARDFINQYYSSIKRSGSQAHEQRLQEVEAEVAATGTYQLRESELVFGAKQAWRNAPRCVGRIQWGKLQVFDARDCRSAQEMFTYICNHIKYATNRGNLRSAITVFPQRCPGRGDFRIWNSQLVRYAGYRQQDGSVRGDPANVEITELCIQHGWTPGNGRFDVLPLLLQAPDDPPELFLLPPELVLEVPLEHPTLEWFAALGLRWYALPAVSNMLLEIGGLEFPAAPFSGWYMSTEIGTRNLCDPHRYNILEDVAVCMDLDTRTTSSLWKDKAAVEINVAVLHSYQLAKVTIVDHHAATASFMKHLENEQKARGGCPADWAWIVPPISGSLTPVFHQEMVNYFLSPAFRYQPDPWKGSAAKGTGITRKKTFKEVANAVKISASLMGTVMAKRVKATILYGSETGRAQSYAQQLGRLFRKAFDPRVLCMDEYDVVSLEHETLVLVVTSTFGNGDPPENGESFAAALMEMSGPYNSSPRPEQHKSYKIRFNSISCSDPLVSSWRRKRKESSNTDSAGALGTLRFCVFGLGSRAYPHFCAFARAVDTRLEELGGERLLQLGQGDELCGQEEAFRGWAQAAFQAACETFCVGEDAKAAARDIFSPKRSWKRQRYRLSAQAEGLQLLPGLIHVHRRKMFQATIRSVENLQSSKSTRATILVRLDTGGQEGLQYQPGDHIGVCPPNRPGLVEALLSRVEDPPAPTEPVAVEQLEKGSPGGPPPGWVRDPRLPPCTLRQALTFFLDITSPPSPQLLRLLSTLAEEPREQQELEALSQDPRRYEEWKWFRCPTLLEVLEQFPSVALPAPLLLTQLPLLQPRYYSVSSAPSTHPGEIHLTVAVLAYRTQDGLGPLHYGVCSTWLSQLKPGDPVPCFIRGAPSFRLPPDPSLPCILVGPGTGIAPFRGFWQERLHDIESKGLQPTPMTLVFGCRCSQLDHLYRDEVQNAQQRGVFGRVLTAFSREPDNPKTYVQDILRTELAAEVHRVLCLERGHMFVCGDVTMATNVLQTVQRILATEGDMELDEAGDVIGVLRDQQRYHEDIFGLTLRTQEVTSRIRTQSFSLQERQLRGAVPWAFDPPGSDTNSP
# [9] = target: Nitric oxide synthase, inducible (Homo sapiens, UniProt P35228); assay: Inhibition of human iNOS
# Sequence of Nitric oxide synthase, inducible (P35228 whole entry, the tested form may be a part): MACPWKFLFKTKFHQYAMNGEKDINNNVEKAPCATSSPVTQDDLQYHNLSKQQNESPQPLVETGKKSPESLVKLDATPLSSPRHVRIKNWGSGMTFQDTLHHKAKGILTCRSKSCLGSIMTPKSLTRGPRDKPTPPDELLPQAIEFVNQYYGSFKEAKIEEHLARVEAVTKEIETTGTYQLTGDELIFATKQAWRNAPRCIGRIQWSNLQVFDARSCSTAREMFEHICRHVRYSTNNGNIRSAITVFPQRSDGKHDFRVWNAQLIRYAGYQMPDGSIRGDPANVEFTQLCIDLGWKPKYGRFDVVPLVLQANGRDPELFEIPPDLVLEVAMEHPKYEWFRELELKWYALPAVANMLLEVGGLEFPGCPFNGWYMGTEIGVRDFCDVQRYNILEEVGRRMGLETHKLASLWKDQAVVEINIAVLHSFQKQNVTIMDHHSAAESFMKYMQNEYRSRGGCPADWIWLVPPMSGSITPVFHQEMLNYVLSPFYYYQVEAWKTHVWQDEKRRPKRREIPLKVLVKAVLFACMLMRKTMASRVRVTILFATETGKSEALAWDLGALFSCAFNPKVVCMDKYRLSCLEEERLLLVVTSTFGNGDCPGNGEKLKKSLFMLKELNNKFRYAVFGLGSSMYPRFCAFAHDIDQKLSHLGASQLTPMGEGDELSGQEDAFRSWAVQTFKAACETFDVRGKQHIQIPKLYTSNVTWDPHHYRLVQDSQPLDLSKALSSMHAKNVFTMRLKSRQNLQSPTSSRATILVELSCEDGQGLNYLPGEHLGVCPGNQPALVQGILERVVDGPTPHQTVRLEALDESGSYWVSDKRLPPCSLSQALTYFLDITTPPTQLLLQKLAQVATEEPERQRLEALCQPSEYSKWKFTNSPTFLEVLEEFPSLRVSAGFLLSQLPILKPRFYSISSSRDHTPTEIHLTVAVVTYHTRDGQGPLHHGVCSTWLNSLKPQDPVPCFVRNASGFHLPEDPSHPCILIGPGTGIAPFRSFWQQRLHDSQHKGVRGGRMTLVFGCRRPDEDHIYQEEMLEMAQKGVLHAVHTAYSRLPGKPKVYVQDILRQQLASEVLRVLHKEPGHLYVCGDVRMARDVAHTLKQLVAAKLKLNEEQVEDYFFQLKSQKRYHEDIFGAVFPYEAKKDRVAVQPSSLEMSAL
# Homo sapiens [10] = assay: Neuroprotective activity in Parkinson disease patient assessed as reduction of L-DOPA-induced dyskinesia administered as infusion treated prior to L-DOPA-challenge relative to control; assay type: functional; parameters: scale not given: the % may be the effect or the level left
# Homo sapiens [11] = species on record: Homo sapiens; assay: Selectivity ratio of IC50 for NTD-deleted GluN1/NTD-deleted GluN2D receptor (unknown origin) to IC50 for NTD-deleted GluN1/NTD-deleted GluN2A receptor (unknown origin)
# [12] = Inhibition of bovine nNOS; parameters: species or system Bos taurus
# [13] = target: Microtubule-associated protein tau (Homo sapiens, UniProt P10636); assay: Inhibition of recombinant tau (unknown origin) aggregation
# Sequence of Microtubule-associated protein tau (P10636 whole entry): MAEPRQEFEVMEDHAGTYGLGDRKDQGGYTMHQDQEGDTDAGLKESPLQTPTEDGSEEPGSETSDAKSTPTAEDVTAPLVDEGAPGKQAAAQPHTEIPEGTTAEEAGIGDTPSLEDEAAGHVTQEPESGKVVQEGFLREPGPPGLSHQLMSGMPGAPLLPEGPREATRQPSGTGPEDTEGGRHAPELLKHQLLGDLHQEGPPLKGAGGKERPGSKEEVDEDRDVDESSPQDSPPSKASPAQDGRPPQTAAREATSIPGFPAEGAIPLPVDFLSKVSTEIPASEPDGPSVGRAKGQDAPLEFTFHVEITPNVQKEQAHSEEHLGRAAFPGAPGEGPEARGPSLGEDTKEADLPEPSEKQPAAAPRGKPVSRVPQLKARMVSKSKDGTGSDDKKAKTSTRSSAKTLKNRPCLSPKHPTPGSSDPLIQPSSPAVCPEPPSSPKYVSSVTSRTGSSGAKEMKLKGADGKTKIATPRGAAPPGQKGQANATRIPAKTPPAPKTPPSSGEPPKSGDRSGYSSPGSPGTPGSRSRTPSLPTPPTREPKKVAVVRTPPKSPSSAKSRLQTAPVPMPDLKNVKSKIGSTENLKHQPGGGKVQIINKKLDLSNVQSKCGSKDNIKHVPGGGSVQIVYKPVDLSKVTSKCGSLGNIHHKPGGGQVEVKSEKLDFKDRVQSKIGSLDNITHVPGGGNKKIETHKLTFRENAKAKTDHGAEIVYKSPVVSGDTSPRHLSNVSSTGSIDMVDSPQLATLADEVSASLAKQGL
# Mus musculus = species on record: Mus musculus; assay: Neuroprotective activity in amyotrophic lateral sclerosis mouse model expressing human SOD1 G93A mutant assessed as increase in life span relative to control; assay type: functional
structure (smiles),measurement,setting,value
Cc1ccc2[nH]c(=O)c(C3=NN(C(=O)CCC(=O)O)C(c4ccc(Br)cc4)C3)c(-c3ccccc3)c2c1 (stereo not given),Ratio IC50,Homo sapiens [1],> 50
C[C@@]1(c2cc(-c3cncnc3)c(F)cc2F)CCSC(N)=N1 [LY-2811376],Activity,Canis familiaris,70%
C[C@@H](CN1CCC(Cc2ccccc2)CC1)[C@@H](O)c1ccc(O)cc1,pIC50,[2],6.40
COC(=O)[C@@H](CCCNC(=N)N[N+](=O)[O-])NC(=O)[C@H](N)Cc1ccccc1 (H-[dF]-[dArg(NO2)]-OMe),Ratio Ki,[3],2.6
same,pKi,Nitric oxide synthase 1 [4],5.72
same,Ratio Ki,[5],1800
CC(=O)CN1CCN(CCc2ccc(-c3cccc(N)n3)cc2)CC1,pIC50,Nitric oxide synthase 1 [6],6.85
same,Ratio IC50,Homo sapiens [7],6
COC(=O)c1ccc(C(=O)Nc2nc3ccc(C(=O)Nc4ccccc4)cc3s2)cc1,pIC50,Huntingtin,5.92
Cc1ccc2c(c1)c1c(n2CCc2ccc(C)nc2)CCN(C)C1 [LATREPIRDINE],pIC50,[8],5.00
same,IC50,L-type calcium channel,50 µM
NC(=Nc1ccc(CCNCCc2cccc(Cl)c2)cc1)c1cccs1,pIC50,Nitric oxide synthase 3,5.46
same,pIC50,Nitric oxide synthase 1 [6],7.46
same,pIC50,[9],5.30
C[C@@H]([C@@H](O)c1ccc(O)cc1)N1CCC(O)(c2ccccc2)CC1 [TRAXOPRODIL],Activity,Homo sapiens [10],30%
O=C(O)c1cc2cc(Br)ccc2oc1=O,Ratio IC50,Homo sapiens [11],23
C=CNC(=N)NCCC[C@H](N)C(=O)O,Ratio Ki,[3],35
same,pKi,[12],6.70
same,Ratio Ki,[5],11
N=C(Nc1ccc(CCNCCc2cccc(Cl)c2)cc1)c1cccs1,Ratio IC50,Homo sapiens [7],100
N/N=C(\N)NCCC[C@H](N)C(=O)O,Ratio Ki,[3],8.3
same,pKi,[12],6.52
same,Ratio Ki,[5],10
Cc1cc2nc3ccc(N(C)C)cc3[s+]c2cc1N [TOLONIUM CHLORIDE],pKi,[13],7.16
CC(C(O)c1ccc(O)cc1)N1CCC(Cc2ccccc2)CC1 (stereo not given) [IFENPRODIL],pIC50,[2],5.46
N=C(NCCC[C@H](N)C(=O)O)N[N+](=O)[O-] [NITROARGININE],Ratio Ki,[3],11
same,Ratio Ki,[5],293
[O-][n+]1cccc(/C(Cl)=N/OC[C@H](O)CN2CCCCC2)c1 [ARIMOCLOMOL],Activity,Mus musculus,22%
CN(C)CCOc1ccc(-c2cccc(N)n2)c2c1CCCC2,pIC50,Nitric oxide synthase 1 [6],7.15
same,Ratio IC50,Homo sapiens [7],50
